Assay results taken from US7482456B2, “8-(3-Biaryl)phenylquinoline phosphodiesterase-4 inhibitors” (Merck Frosst Canada, priority 2003, dated 2009).
pIC50: −log10 of the molar value.

Target: T1, human recombinant phosphodiesterase IVa (met-248) (Homo sapiens, UniProt P27815)
T1 construct: human recombinant phosphodiesterase IVa (met-248); made in house; host or cells: baculovirus/Sf-9
Experiment: SPA based PDE activity assay
Type: biochemical
Conditions: 100 nM cAMP; purified GST fusion protein of human recombinant PDE IVa (met-248), baculovirus/Sf-9
Description: Compounds which inhibit the hydrolysis of cAMP to AMP by the type-IV cAMP-specific phosphodiesterases were screened in a 96-well plate format as follows:
In a 96 well-plate at 30° C. was added the test compound (dissolved in 2 μL DMSO), […] of substrate buffer containing [2,8-^3H] adenosine 3′,5′-cyclic phosphate (cAMP, 100 nM to 50 μM), 10 mM MgCl2, 1 mM EDTA, 50 mM Tris, pH 7.5. The reaction was initiated by the addition of […] of human recombinant PDE4 (the amount was controlled so that ˜10% product was formed in 10 min.). The reaction was stopped after 10 min. by the addition of 1 mg of PDE-SPA beads (Amersham Pharmacia Biotech, Inc., Piscataway, N.J.). The product AMP generated was quantified on a Wallac Microbeta® 96-well plate counter (EG&G Wallac Co., Gaithersburg, Md.). The signal in the absence of enzyme was defined as the background. 100% activity was defined as the signal detected in the presence of enzyme and DMSO with the background subtracted. Percentage of inhibition was calculated accordingly. IC50 value was approximated with a non-linear regression fit using the standard 4-parameter/multiple binding sites equation from a ten point titration.

T1 sequence (P27815 248-886 limits assumed): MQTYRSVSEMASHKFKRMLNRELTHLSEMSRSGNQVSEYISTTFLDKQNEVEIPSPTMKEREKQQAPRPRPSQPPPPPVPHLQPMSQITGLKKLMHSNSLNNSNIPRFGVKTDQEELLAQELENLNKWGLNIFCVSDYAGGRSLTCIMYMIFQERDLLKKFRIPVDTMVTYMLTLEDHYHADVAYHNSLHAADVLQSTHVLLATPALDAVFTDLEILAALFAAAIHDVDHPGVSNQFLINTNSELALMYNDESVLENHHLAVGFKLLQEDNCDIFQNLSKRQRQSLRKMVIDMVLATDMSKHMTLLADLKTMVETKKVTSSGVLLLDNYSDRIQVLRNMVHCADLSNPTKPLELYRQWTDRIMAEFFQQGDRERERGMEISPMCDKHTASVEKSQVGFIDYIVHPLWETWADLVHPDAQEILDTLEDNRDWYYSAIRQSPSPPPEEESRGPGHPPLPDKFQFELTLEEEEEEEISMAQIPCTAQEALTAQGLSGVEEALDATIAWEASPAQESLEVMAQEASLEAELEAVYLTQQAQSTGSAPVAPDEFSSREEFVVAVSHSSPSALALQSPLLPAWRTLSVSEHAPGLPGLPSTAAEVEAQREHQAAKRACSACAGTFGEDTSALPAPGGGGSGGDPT

| Compound | pIC50 |
| --- | --- |
| CC(C)(O)c1ccc(-c2nc(-c3ccc(S(C)(=O)=O)cc3)c(-c3cccc(-c4cc(C(C)(C)S(C)(=O)=O)cc5cccnc45)c3)s2)cc1 [Example 157, 2-(4-{5-(3-{6-[1-methyl-1-(methylsulfonyl)ethyl]quinolin-8-yl}phenyl)-4-[4-(methylsulfonyl)phenyl]-1,3-thiazol-2-yl}phenyl)propan-2-ol] | 8.77 |
| CC(O)(c1ccc(Cl)cc1)c1nc(-c2cccc(-c3cc(C(C)(C)S(C)(=O)=O)cc4cccnc34)c2)c(-c2ccc(S(C)(=O)=O)cc2)s1 (centres unmarked) [Example 82, 1-(4-chlorophenyl)-1-{4-(3-{6-[1-methyl-1-(methylsulfonyl)ethyl]quinolin-8-yl}phenyl)-5-[4-(methylsulfonyl)phenyl]-1,3-thiazol-2-yl}ethanol] | 8.51 |
| Cc1noc(-c2cc(-c3cccc(-c4cc(C(C)(C)S(C)(=O)=O)cc5cccnc45)c3)c[n+]([O-])c2)n1 [Example 100, 6-[1-methyl-1-(methylsulfonyl)ethyl]-8-{3-[5-(3-methyl-1,2,4-oxadiazol-5-yl)-1-oxidopyridin-3-yl]phenyl}quinoline] | 8.39 |
| CC(C)(O)c1nc(-c2cccc(-c3cc(C(C)(C)S(C)(=O)=O)cc4cccnc34)c2)c(-c2ccc(Cl)cc2)s1 [Example 94, 2-[5-(4-chlorophenyl)-4-(3-{6-[1-methyl-1-(methylsulfonyl)ethyl]quinolin-8-yl}phenyl)-1,3-thiazol-2-yl]propan-2-ol] | 8.37 |
| Cn1nnc(-c2cc(-c3cccc(-c4cc(C(C)(C)S(C)(=O)=O)cc5cccnc45)c3)c[n+]([O-])c2)n1 [Example 115, 6-[1-methyl-1-(methylsulfonyl)ethyl]-8-{3-[5-(2-methyl-2H-tetraazol-5-yl)-1-oxidopyridin-3-yl]phenyl}quinoline] | 8.66 |

Stronger by pIC50, values ahead:

| pIC50 | Compound |
| --- | --- |
| 9.52 | CC(C)(c1cc(-c2cccc(-c3sc(-c4cccc(Cl)c4)nc3-c3ccc(S(C)(=O)=O)cc3)c2)c2ncccc2c1)S(C)(=O)=O [Example 1, 8-(3-{2-(3-chlorophenyl)-4-[4-(methylsulfonyl)phenyl]-1,3-thiazol-5-yl}phenyl)-6-[1-methyl-1-(methylsulfonyl)ethyl]quinoline] |
| 9.40 | CC(C)(O)c1nc(-c2ccc(S(C)(=O)=O)cc2)c(-c2cccc(-c3cc(C(=O)NC4CC4)cc4cccnc34)c2)s1 [Example 167, N-cyclopropyl-8-(3-{2-(1-hydroxy-1-methylethyl)-4-[4-(methylsulfonyl)phenyl]-1,3-thiazol-5-yl}phenyl)quinoline-6-carboxamide] |
| 8.80 | CC(C)(O)c1cccc(-c2nc(-c3ccc(F)c(Cl)c3)c(-c3cccc(-c4cc(C(C)(C)S(C)(=O)=O)cc5cccnc45)c3)s2)c1 [Example 88, 2-{3-[4-(3-chloro-4-fluorophenyl)-5-(3-{6-[1-methyl-1-(methylsulfonyl)ethyl]quinolin-8-yl}phenyl)-1,3-thiazol-2-yl]phenyl}propan-2-ol] |
| 9.22 | CC(C)(O)c1cccc(-c2nc(-c3ccc(S(C)(=O)=O)cc3)c(-c3cccc(-c4cc(C(C)(C)S(C)(=O)=O)cc5cccnc45)c3)s2)c1 [Example 69, 2-(3-{5-(3-{6-[1-methyl-1-(methylsulfonyl)ethyl]quinolin-8-yl}phenyl)-4-[4-(methylsulfonyl)phenyl]-1,3-thiazol-2-yl}phenyl)propan-2-ol] |
| 9.00 | CC(C)(c1cc(-c2cccc(-c3sc(-c4cccc(S(C)(=O)=O)c4)nc3-c3ccc(S(C)(=O)=O)cc3)c2)c2ncccc2c1)S(C)(=O)=O [Example 41] |
| 9.40 | CC(C)(O)c1nc(-c2cccc(-c3cc(C(C)(C)S(C)(=O)=O)cc4cccnc34)c2)c(-c2ccc(S(C)(=O)=O)cc2)s1 [Example 78, 2-{4-(3-{6-[1-methyl-1-(methylsulfonyl)ethyl]quinolin-8-yl}phenyl)-5-[4-(methylsulfonyl)phenyl]-1,3-thiazol-2-yl}propan-2-ol] |
